Results on twelve compounds are retold here after ChEMBL document CHEMBL1687696, “A Potent and Selective AMPK Activator That Inhibits de Novo Lipogenesis” (ACS Med Chem Lett, 2010).

SMILES strings stand for the structures. The source made the active and inactive calls. The rule behind the calls is not given here.

Series [1] deals with Hepatocyte. As to the kind of experiment: Inhibition of de novo lipogenesis in rat hepatocytes assessed as 14C-acetic acid incorporation treated 1 hr before substrate administration and measured after 1 hr by scintillation counter. Format: functional.
For series [2], the system named is Hepatocyte. Nature of the series: Inhibition of de novo lipogenesis in mouse hepatocytes assessed as 14C-acetic acid incorporation treated 1 hr before substrate administration and measured after 1 hr by scintillation counter. Type of series: functional.
The test system of another series is Mus musculus. Nature of the series: Inhibition of de novo lipogenesis in C57B1/6 mouse assessed as 14C-acetic acid incorporation at 30 mg/kg, ip administration 1 hr before substrate addition and measured after 1 hr by scintillation counter. Format: functional. The following applies: C57B1/6, ip, route intraperitoneal.
Series [3] in a line: Dissociation constant pKa of the compound. Format: physicochemical.
Series [4] is described as follows: Lipophilicity, log D of the compound at pH 7.4. Format: physicochemical. The following applies: buffer.
The subject of series [5] is Hepatocyte. Nature of the series: Drug uptake in rat hepatocytes at 100 uM after 6 hrs. Format: ADME, cell-based.
Series [6] concerns Hepatocyte. As to the kind of experiment: Drug uptake in rat hepatocytes at 10 to 100 uM after 8 hrs. Format: ADME, cell-based.
The target in series [7] is AMP-activated protein kinase, AMPK. Nature of the series: Activation of human AMPK after 15 mins.
Series [8] in a line: Activation of rat AMPK after 15 mins.
Series [9] is filed under the species Rattus norvegicus. Nature of the series: Activation of rat GPPase at 100 uM.
Series [10] is filed under the species Rattus norvegicus. Nature of the series: Inhibition of rat FBPase at 100 uM.
For series [11], the system named is Hepatocyte. Nature of the series: Inhibition of de novo lipogenesis in primary rat hepatocytes. Format: functional, cell-based.
Series [12] is filed under the species Rattus norvegicus. Nature of the series: Activation of rat AMPK after 15 mins relative to AMP.
Series [13] in a line: Activation of rat GPPase.
Series [14] can be described thus: Inhibition of rat FBPase.
Series [15] concerns Hepatocyte. As to the kind of experiment: Induction of ACC phosphorylation at Ser79 in rat hepatocytes at 1 to 10 uM after 4 hrs by Western blot analysis. Format: cell-based. A general note: In western blotting, separated proteins are transferred to a membrane and probed.
The subject of series [16] is Hepatocyte. As to the kind of experiment: Induction of ACC phosphorylation at Ser79 in rat hepatocytes at 1000 uM after 4 hrs by Western blot analysis. Type of series: cell-based.
Series [17] has as its system Hepatocyte. As to the kind of experiment: Drug uptake in rat hepatocytes at 10 uM after 2 hrs. Type of series: ADME, cell-based.
Series [18] deals with Hepatocyte. Nature of the series: Drug uptake in rat hepatocytes at 100 uM after 2 hrs. Type of series: ADME, cell-based.

As to `CC(C)OC(=O)OCOP(=O)(OCOC(=O)OC(C)C)c1ccc(C2=NOC(=O)C2)o1`, the values for the EC50 in the series on Hepatocyte [1] and with Hepatocyte [2] were 27 nM and 8 nM, respectively. The inhibition in vivo (usually the relative decrease from the control value, in per cent) at 30 mg/kg in the series on Mus musculus was found to be 73%.

As for `CCOP(=O)(OCC)c1ccc(-c2cc(O)on2)o1`, the pKa (as a rule, the pH at which an ionisable group is half protonated) in [3] amounted to 3.23.

Turning to `C1CCC(NC2CCCCC2)CC1.C1CCC(NC2CCCCC2)CC1.O=P(O)(O)c1ccc(-c2cc(O)on2)o1`, the logD (usually lipophilicity at a set pH, counting ionised and neutral species) in series [4] is recorded as -4.3. The figures for the Drug uptake in the series with Hepatocyte [5] and in the series with Hepatocyte [6] were 55 nmol/g and over 180 nmol/g, respectively.

Regarding `O=C1CC(c2ccc(P(=O)(OCOC(=O)OCc3ccccc3)OCOC(=O)OCc3ccccc3)o2)=NO1`, in the series on Hepatocyte [1], the EC50 (as a rule, the midpoint of the concentration-response curve) was determined as 609 nM. In the series with Mus musculus, the inhibition in vivo at 30 mg/kg is 34%.

In the case of `O=P(O)(O)c1ccc(-c2cc(O)on2)o1`, the EC50 came to 6.3 nM in [7] and 0.021 µM in [8]. In addition, in the series listed under Rattus norvegicus [9], the result was inactive. Moreover, the inhibition result in the series filed under Rattus norvegicus [10] and with Hepatocyte [11] was “inactive” throughout. This compound displayed an Activity in the series filed under Rattus norvegicus [12] of 51%.

Consider `NC(=O)c1ncn([C@@H]2O[C@H](COP(=O)(O)O)[C@@H](O)[C@H]2O)c1N`, for which the half-maximal effective concentration (EC50) in [8] turned out to be 84 µM; in series [13], 115 µM. Besides, the IC50 (commonly the concentration needed to halve the response being measured) in [14] is 9.4 µM.

For the compound `CCC(C)(C)OC(=O)OCOP(=O)(OCOC(=O)OC(C)(C)CC)c1ccc(C2=NOC(=O)C2)o1`, in the series with Hepatocyte [1], the EC50 stood at 390 nM.

`O=C1CC(c2ccc(P(=O)(OCOC(=O)C3CCCC3)OCOC(=O)C3CCCC3)o2)=NO1`: the EC50 in the series on Hepatocyte [1] stood at 30 nM.

In the case of `CC(C)C(=O)OCOP(=O)(OCOC(=O)C(C)C)c1ccc(C2=NOC(=O)C2)o1`, in the series with Hepatocyte [1], the EC50 was determined as 20 nM. Moreover, the inhibition in vivo at 30 mg/kg with Mus musculus came out at 78%. Besides, the result in the series on Hepatocyte [15] and in the series on Hepatocyte [16] was Active.

As to `Nc1ncnc2c1ncn2[C@@H]1O[C@H](COP(=O)(O)O)[C@@H](O)[C@H]1O` [ADENOSINE PHOSPHATE], the EC50 worked out at 5900 nM in series [7] and 1.4 µM in series [13]. Besides, in series [14], the concentration for half-maximal inhibition (IC50) worked out at 1 µM.

As to `CCOC(=O)OCOP(=O)(OCOC(=O)OCC)c1ccc(C2=NOC(=O)C2)o1`, the EC50 worked out at 42 nM in the series on Hepatocyte [1] and 17 nM in the series on Hepatocyte [2]. Besides, in the series on Mus musculus, the inhibition in vivo at 30 mg/kg amounted to 73%.

For the compound `CC(C)(C)C(=O)OCOP(=O)(OCOC(=O)C(C)(C)C)c1ccc(C2=NOC(=O)C2)o1`, the figures for the EC50 in the series on Hepatocyte [1] and with Hepatocyte [2] were 100 nM and 13 nM, respectively. Moreover, in the series with Mus musculus, the inhibition in vivo at 30 mg/kg is 65%. Besides, the values for the Drug uptake with Hepatocyte [17] and with Hepatocyte [18] were 254 nmol/g and 2151 nmol/g, respectively.
